In patent US10517889B2, “Modulators of SMAD7 expression” (Ionis Pharmaceuticals, Inc., priority 2017, dated 2019):
Values joined by “and” are separate entries in the source; they are usually repeats but may differ in a detail not shown here. Equal values may be shown once. Strand notation (5' to 3'): a small letter for the sugar, then the base; units joined by * are phosphorothioate-linked, units joined directly phosphodiester-linked; [ ] holds rarer units or linkages, { } end groups; capitals alone tell only the bases. k = constrained ethyl (cEt); [5mC] = 5-methylcytosine; d = 2'-deoxy (DNA)

System: human SMAD7 mRNA
Assay: Antisense inhibition of human SMAD7 mRNA expression in Hep3B cells by 3-10-3 cEt gapmers, 10,000 nM, electroporation (Example 2)
Type: cell-based
Settings: Hep3B cells, 10,000 nM antisense oligonucleotide, electroporation, approximately 24 hours, RT-PCR primer probe set RTS5062, relative to untreated control cells
In short: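 qRT-PCR (RTS5062) of SMAD7 mRNA, normalised to RIBOGREEN total RNA, gave percent inhibition relative to untreated controls. Hep3B cells at 20,000 per well received 10,000 nM oligonucleotide by electroporation, with ~24 h treatment.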

Substance | % Inhibition
772621 (kA*kA*k[5mC]*dT*dG*d[5mC]*dT*dG*d[5mC]*dG*dG*dT*dT*kG*kT*kA; antisense) [compound 772621] | 38%
790513 (k[5mC]*kA*k[5mC]*d[5mC]*dA*dG*d[5mC]*dT*dG*dA*d[5mC]*dT*d[5mC]*kT*kT*kG; antisense) [compound 790513] | 10%

Same assay, conditions: Hep3B cells, electroporation with 10,000 nM antisense oligonucleotide, approximately 24 hours, RTS5062, percent inhibition of SMAD7 mRNA relative to untreated control cells

Substance | % Inhibition
799630 (k[5mC]*k[5mC]*k[5mC]*dT*dA*dT*d[5mC]*d[5mC]*d[5mC]*dA*dG*dA*dG*k[5mC]*k[5mC]*kT; antisense) [compound 799630] | 43%
799804 (kA*k[5mC]*kA*dG*dA*d[5mC]*dA*dG*dA*dG*dA*dA*dG*kG*kA*kT; antisense) [compound 799804] | 38%
799645 (k[5mC]*kA*kA*dA*dG*dA*dT*dG*dA*dT*dA*dG*d[5mC]*kT*kT*k[5mC]; antisense) [compound 799645] | 45%
799723 (antisense kA*kG*k[5mC]*d[5mC]*dA*dA*d[5mC]*d[5mC]*d[5mC]*dT*dG*dG*d[5mC]*kA*k[5mC]*k[5mC]) [compound 799723] | 0%
799727 (antisense kT*kG*kA*d[5mC]*dA*dG*dT*dA*dG*dG*d[5mC]*dA*dG*kG*k[5mC]*kA) [compound 799727] | 22%

Same assay, conditions: Hep3B cells, electroporation with 10,000 nM antisense oligonucleotide, approximately 24 hours, SMAD7 mRNA by RT-PCR (RTS5062), relative to untreated control cells

Substance | % Inhibition
799887 (antisense k[5mC]*kA*kG*dG*dA*d[5mC]*dA*dG*dT*dT*dT*dT*dT*k[5mC]*k[5mC]*k[5mC]) [compound 799887] | 29%
800005 (k[5mC]*k[5mC]*kG*d[5mC]*dA*d[5mC]*d[5mC]*d[5mC]*dA*dG*dA*d[5mC]*d[5mC]*k[5mC]*k[5mC]*kT; antisense) [compound 800005] | 27%
798815 (k[5mC]*kG*k[5mC]*dA*d[5mC]*d[5mC]*dA*dG*dT*dG*dT*dG*dA*k[5mC]*k[5mC]*kG; antisense) [compound 798815] | 45%
830165 (antisense kA*k[5mC]*kA*dG*d[5mC]*dT*dG*dT*dA*d[5mC]*d[5mC]*dA*dG*kG*kG*k[5mC]) [compound 830165] | 58%
800021 (kG*kG*k[5mC]*d[5mC]*dT*d[5mC]*dT*d[5mC]*dG*d[5mC]*dT*dG*dA*kT*kA*kG; antisense) [compound 800021] | 0%
799870 (kA*k[5mC]*k[5mC]*d[5mC]*dA*dG*dA*dA*dG*d[5mC]*dT*dG*d[5mC]*kT*kG*kT; antisense) [compound 799870] | 18%
798752 (k[5mC]*kG*kG*d[5mC]*d[5mC]*dG*dG*dG*d[5mC]*dA*dG*d[5mC]*dA*kG*kG*kA; antisense) [compound 798752] | 0%
798882 (kA*kG*k[5mC]*d[5mC]*d[5mC]*dG*dT*d[5mC]*d[5mC]*dA*d[5mC]*dG*dG*k[5mC]*kT*kG; antisense) [compound 798882] | 0%
790493 (kG*kT*kT*dG*dA*dT*d[5mC]*dT*dT*d[5mC]*d[5mC]*d[5mC]*dG*kT*kA*kA; antisense) [compound 790493] | 0%
830130 (antisense k[5mC]*k[5mC]*kA*d[5mC]*d[5mC]*dT*d[5mC]*d[5mC]*dG*dA*dG*dG*d[5mC]*kA*k[5mC]*k[5mC]) [compound 830130] | 32%
830116 (k[5mC]*kA*k[5mC]*d[5mC]*d[5mC]*dT*dA*dA*dA*d[5mC]*dT*dG*dA*kG*k[5mC]*k[5mC]; antisense) [compound 830116] | 11%
830036 (antisense kT*kA*kT*dT*dG*dG*d[5mC]*dT*dG*dA*dT*d[5mC]*dT*kG*kG*kA) [compound 830036] | 52%
830210 (kG*kA*k[5mC]*d[5mC]*dG*dG*dA*dA*dG*dT*d[5mC]*dT*dT*kG*kT*kA; antisense) [compound 830210] | 29%
830080 (kT*kA*kT*dA*d[5mC]*d[5mC]*d[5mC]*dT*dG*d[5mC]*dA*d[5mC]*dT*kT*kT*k[5mC]; antisense) [compound 830080] | 32%
800104 (antisense kA*kG*kG*dA*d[5mC]*dG*dA*dG*dA*d[5mC]*dA*dG*dA*kA*kA*kG) [compound 800104] | 17%
798713 (antisense kG*k[5mC]*k[5mC]*dG*d[5mC]*d[5mC]*dA*d[5mC]*d[5mC]*dG*dG*d[5mC]*d[5mC]*k[5mC]*k[5mC]*kA) [compound 798713] | 45%
800039 (kG*kG*kT*dT*dA*dA*dT*dG*dG*d[5mC]*d[5mC]*d[5mC]*dA*kG*k[5mC]*k[5mC]; antisense) [compound 800039] | 27%
772587 (kA*kT*k[5mC]*d[5mC]*d[5mC]*d[5mC]*dA*dG*dG*d[5mC]*dT*d[5mC]*d[5mC]*kA*kG*kA; antisense) [compound 772587] | 39%
800041 (kG*k[5mC]*k[5mC]*dA*d[5mC]*d[5mC]*dT*dA*dG*dG*d[5mC]*dA*dA*kG*kG*kG; antisense) [compound 800041] | 0%

Same assay, conditions: Hep3B cells, electroporation with 10,000 nM antisense oligonucleotide, approximately 24 hours, primer probe set RTS5062, relative to untreated control cells

Substance | % inhibition of SMAD7 mRNA expression | % Inhibition
798688 (antisense kG*kT*k[5mC]*d[5mC]*dT*dG*dA*dA*d[5mC]*dA*dT*dG*d[5mC]*kG*kG*kG) [compound 798688] | 68% | 
799077 (antisense k[5mC]*kA*kG*dG*dA*dG*d[5mC]*dA*dG*dA*dT*dG*dG*k[5mC]*k[5mC]*kA) [compound 799077] |  | 28%
798984 (antisense kG*k[5mC]*k[5mC]*d[5mC]*d[5mC]*d[5mC]*d[5mC]*dT*dT*d[5mC]*dA*dT*dA*k[5mC]*kA*k[5mC]) [compound 798984] | 64% | 
798672 (antisense kG*kG*k[5mC]*dA*dG*dG*dA*dG*d[5mC]*dG*dG*d[5mC]*dG*kG*k[5mC]*kG) [compound 798672] | 6% | 
798945 (antisense k[5mC]*kA*k[5mC]*dA*dA*dA*d[5mC]*dG*dA*dG*dG*dA*d[5mC]*kG*kA*kG) [compound 798945] | 19% | 
799030 (kG*k[5mC]*kA*dG*dG*dA*dG*dA*dG*dA*d[5mC]*dA*d[5mC]*k[5mC]*kG*k[5mC]; antisense) [compound 799030] | 52% | 
799437 (antisense k[5mC]*k[5mC]*kA*dG*dA*dT*d[5mC]*dT*d[5mC]*dA*dG*dG*dT*k[5mC]*kA*kA) [compound 799437] | 26% | 
799419 (antisense kA*kA*kA*dA*dA*dT*dT*d[5mC]*dA*dA*d[5mC]*d[5mC]*dT*kA*kA*kG) [compound 799419] | 0% | 
799237 (kA*k[5mC]*kA*dT*dA*dA*dA*d[5mC]*dT*d[5mC]*d[5mC]*dT*dT*kT*kA*kG; antisense) [compound 799237] |  | 9%
799043 (kA*kG*k[5mC]*d[5mC]*dG*dT*dG*d[5mC]*dT*d[5mC]*d[5mC]*dT*dG*kG*k[5mC]*kA; antisense) [compound 799043] | 0% and 10% | 

Same assay, conditions: Hep3B cells, electroporation, 10,000 nM antisense oligonucleotide, approximately 24 hours, RTS5062, relative to untreated control cells

Substance | % inhibition of SMAD7 mRNA expression
799735 (antisense kT*k[5mC]*k[5mC]*dA*d[5mC]*dG*dG*dG*dA*dG*dT*dG*dG*kA*kA*kG) [compound 799735] | 0%
799756 (antisense k[5mC]*kA*kG*dG*dG*d[5mC]*dA*dG*d[5mC]*dT*d[5mC]*d[5mC]*dG*kA*kG*kA) [compound 799756] | 44%
799739 (antisense k[5mC]*kA*k[5mC]*d[5mC]*d[5mC]*d[5mC]*dT*dA*dT*d[5mC]*dA*dA*dA*kA*kA*kA) [compound 799739] | 0%
799580 (kA*kA*kA*d[5mC]*d[5mC]*dT*dT*d[5mC]*d[5mC]*dG*dA*dA*dA*kG*kG*kA; antisense) [compound 799580] | 33%
799639 (k[5mC]*k[5mC]*kA*dG*dA*dG*dA*dG*dT*d[5mC]*dA*dG*dG*k[5mC]*kA*k[5mC]; antisense) [compound 799639] | 34%
799284 (antisense k[5mC]*kG*kT*dA*dA*dG*dA*d[5mC]*dA*dG*dA*d[5mC]*d[5mC]*kA*k[5mC]*kA) [compound 799284] | 51%

Same assay, conditions: Hep3B cells, electroporation, 10,000 nM, approximately 24 hours; 3-10-3 cEt gapmers targeting SEQ ID NO: 3 and 4

Substance | % inhibition of SMAD7 mRNA expression
799239 (kT*k[5mC]*kA*dG*dT*dT*dG*dG*dT*dT*dT*dG*dA*kG*kA*kA; antisense) [compound 799239] | 16%

Same assay, conditions: SMAD7 mRNA, Hep3B cells, 10,000 nM antisense oligonucleotide, electroporation, approximately 24 hours, primer probe set RTS5062, relative to untreated control cells

Substance | % Inhibition
772714 (kA*kG*kG*dT*dG*dA*dT*dA*dA*d[5mC]*dA*d[5mC]*d[5mC]*k[5mC]*kA*kT; antisense) [compound 772714] | 0%

Same assay, conditions: SMAD7 mRNA, Hep3B cells, electroporation with 10,000 nM antisense oligonucleotide, approximately 24 hours, primer probe set RTS5062, relative to untreated control cells

Substance | % Inhibition
829802 (kT*kT*k[5mC]*dG*d[5mC]*dA*dG*dA*dG*dT*d[5mC]*dG*dG*k[5mC]*kT*kA; antisense) [compound 829802] | 28%
829950 (kT*k[5mC]*k[5mC]*dG*dG*dG*d[5mC]*dA*dG*d[5mC]*d[5mC]*dA*dG*kT*kT*kA; antisense) [compound 829950] | 43%
829947 (kG*kG*kG*d[5mC]*dA*dG*d[5mC]*d[5mC]*dA*dG*dT*dT*dA*kA*kT*k[5mC]; antisense) [compound 829947] | 31%
829878 (antisense kG*kA*kG*dT*d[5mC]*d[5mC]*dG*dG*dG*dT*dT*dG*dT*k[5mC]*k[5mC]*kA) [compound 829878] | 18%
